According to PubChem BioAssay (NCI):
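Briefly, cells in 96-well plates were exposed to five compound concentrations for 48 h, and endpoints were estimated by linear interpolation. TGI: total growth inhibition.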

Tests used:
Assay in all cases: NCI tumour cell line growth inhibition, 48 h
HCT-15 colon = tested on: HCT-15 colon
MDA-MB-435 = tested on: MDA-MB-435
MALME-3M melanoma = tested on: MALME-3M melanoma
HS 578T breast = tested on: HS 578T breast
SK-MEL-5 melanoma = tested on: SK-MEL-5 melanoma
SNB-75 CNS = tested on: SNB-75 CNS
KM12 colon = tested on: KM12 colon
SK-MEL-28 melanoma = tested on: SK-MEL-28 melanoma
NCI-H460 lung = tested on: NCI-H460 lung
UACC-62 melanoma = tested on: UACC-62 melanoma
HT29 colon = tested on: HT29 colon
A549 NSCLC = tested on: A549 NSCLC
A498 renal = tested on: A498 renal
IGROV1 ovarian = tested on: IGROV1 ovarian
RXF 393 renal = tested on: RXF 393 renal
ACHN renal = tested on: ACHN renal
PC-3 prostate = tested on: PC-3 prostate
786-0 renal = tested on: 786-0 renal
BT-549 breast = tested on: BT-549 breast
OVCAR-4 ovarian = tested on: OVCAR-4 ovarian
OVCAR-3 ovarian = tested on: OVCAR-3 ovarian
SF-295 CNS = tested on: SF-295 CNS
HOP-92 NSCLC = tested on: HOP-92 NSCLC
SF-539 CNS = tested on: SF-539 CNS
OVCAR-8 ovarian = tested on: OVCAR-8 ovarian
K-562 leukemia = tested on: K-562 leukemia
MDA-N = tested on: MDA-N
MOLT-4 leukemia = tested on: MOLT-4 leukemia
TK-10 renal = tested on: TK-10 renal
UO-31 renal = tested on: UO-31 renal
SK-OV-3 ovarian = tested on: SK-OV-3 ovarian
OVCAR-5 ovarian = tested on: OVCAR-5 ovarian
NCI-H23 lung = tested on: NCI-H23 lung
HCT-116 colon = tested on: HCT-116 colon
HOP-62 NSCLC = tested on: HOP-62 NSCLC
UACC-257 melanoma = tested on: UACC-257 melanoma
SNB-19 CNS = tested on: SNB-19 CNS
M14 melanoma = tested on: M14 melanoma
SK-MEL-2 melanoma = tested on: SK-MEL-2 melanoma
U251 CNS = tested on: U251 CNS
LOX IMVI melanoma = tested on: LOX IMVI melanoma
SF-268 CNS = tested on: SF-268 CNS
COLO 205 colon = tested on: COLO 205 colon
T-47D breast = tested on: T-47D breast
NCI-H522 lung = tested on: NCI-H522 lung
EKVX NSCLC = tested on: EKVX NSCLC
SN12C renal = tested on: SN12C renal
MCF7 breast = tested on: MCF7 breast
DU-145 prostate = tested on: DU-145 prostate
RPMI-8226 leukemia = tested on: RPMI-8226 leukemia
NCI/ADR-RES ovarian = tested on: NCI/ADR-RES ovarian
MDA-MB-231 breast = tested on: MDA-MB-231 breast
CAKI-1 renal = tested on: CAKI-1 renal
SR leukemia = tested on: SR leukemia
NCI-H226 lung = tested on: NCI-H226 lung

Measured: TGI

Cn1c(=O)c2[nH]c(CSCc3ccccc3)nc2n(C)c1=O
> 100 µM: all assays above
